Experimental data: patent US20240158446A1, “CYCLIC COMPOUND HAVING SELECTIVE INHIBITORY ACTION ON KRAS OVER HRAS AND NRAS” (CHUGAI SEIYAKU KABUSHIKI KAISHA, priority 2021, published 2024)

Tests used:
[1] = molecular target: GDP-bound HRAS wild-type protein (Homo sapiens, UniProt P01112); test: Binding to HRAS by surface plasmon resonance (SPR), Single Cycle Kinetics; conditions: SPR, GDP-bound HRAS wild-type protein vs GDP-bound KRAS wild-type protein
[2] = molecular target: GDP-bound NRAS wild-type protein (Homo sapiens, UniProt P01111); test: Binding to NRAS by surface plasmon resonance (SPR), Single Cycle Kinetics; conditions: SPR, GDP-bound NRAS wild-type protein vs GDP-bound KRAS wild-type protein
Sequence of GDP-bound NRAS wild-type protein (P01111 whole entry): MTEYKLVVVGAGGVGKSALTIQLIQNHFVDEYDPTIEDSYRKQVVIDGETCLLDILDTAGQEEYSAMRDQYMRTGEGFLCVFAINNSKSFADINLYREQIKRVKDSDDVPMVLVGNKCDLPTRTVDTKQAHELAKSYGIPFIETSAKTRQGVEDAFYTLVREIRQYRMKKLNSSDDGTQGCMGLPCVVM

Sequence of GDP-bound HRAS wild-type protein (P01112 whole entry): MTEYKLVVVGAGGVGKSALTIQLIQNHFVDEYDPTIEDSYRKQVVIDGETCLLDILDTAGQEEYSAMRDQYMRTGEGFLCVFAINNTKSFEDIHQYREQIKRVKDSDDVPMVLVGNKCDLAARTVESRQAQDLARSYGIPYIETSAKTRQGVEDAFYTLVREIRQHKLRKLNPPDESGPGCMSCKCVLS

Row | SMILES | HRAS/KRAS (ratio of KD value for HRAS to KD value for KRAS) [1] | NRAS/KRAS (ratio of KD value for NRAS to KD value for KRAS) [2] | HRAS/KRAS (ratio of KD value for HRAS to KD value for KRAS) ([1]; KD ratio class) | NRAS/KRAS (ratio of KD value for NRAS to KD value for KRAS) ([2]; KD ratio class)
1 | CCO[C@@H]1C[C@H]2C(=O)NC3(CCC3)C(=O)N(C)[C@@H](C3CCCC3)C(=O)N(C)[C@H](C(=O)N3C4CCC3COC4)CC(=O)N(C)[C@@H](CC)C(=O)N[C@@H]([C@@H](C)CC)C(=O)N(C)CC(=O)N(C)[C@H]3C/C=C\CCN(C3=O)[C@@H](Cc3ccc(C(F)(F)F)cc3)C(=O)N(C)CC(=O)N[C@@H](CCc3cc(F)c(C(F)(F)F)c(F)c3)C(=O)N2C1 [PP1093] | A (a compound having 10 or more and less than 20 is denoted as A) | AA (a compound having 20 or more is denoted as AA) | – | –
2 | CC[C@H](C)[C@@H]1NC(=O)[C@H](CC(C)C)N(C)C(=O)C[C@@H](C)N(C)C(=O)[C@H](C2CCCC2)N(C)C(=O)C2(CCC2)NC(=O)[C@@H]2CCCN2C(=O)[C@H](CCc2cc(F)c(C(F)(F)F)c(F)c2)NC(=O)CN(C)C(=O)[C@H](Cc2ccc(C(F)(F)F)cc2)N2CC/C=C\C[C@@H](C2=O)N(C)C(=O)CN(C)C1=O [PP1099] | A (a compound having 10 or more and less than 20 is denoted as A) | B (a compound having 3 or more and less than 10 is denoted as B) | – | –
3 | CCO[C@@H]1C[C@H]2C(=O)NC3(CCC3)C(=O)N(C)[C@@H](C3CCCC3)C(=O)N(C)[C@H](C)CC(=O)N(C)[C@@H](CC(C)C)C(=O)N[C@@H]([C@@H](C)CC)C(=O)N(C)CC(=O)N(C)[C@H]3C/C=C\CCN(C3=O)[C@@H](Cc3ccc(C(F)(F)F)cc3)C(=O)N(C)CC(=O)N[C@@H](CCc3cc(F)c(C(F)(F)F)c(F)c3)C(=O)N2C1 [PP1100] | B (a compound having 3 or more and less than 10 is denoted as B) | B (a compound having 3 or more and less than 10 is denoted as B) | – | –
4 | CCO[C@@H]1C[C@H]2C(=O)NC3(CCCC3)C(=O)N(C)[C@@H](C3CCCC3)C(=O)N(C)[C@H](C(=O)N(C)C)CC(=O)N(C)[C@@H](CC(C)C)C(=O)N[C@@H]([C@@H](C)CC)C(=O)N(C)CC(=O)N(C)[C@H]3C/C=C\CCN(C3=O)[C@@H](Cc3ccc(C(F)(F)F)cc3)C(=O)N(C)CC(=O)N[C@@H](CCc3cc(F)c(C(F)(F)F)c(F)c3)C(=O)N2C1 [PP1105, (2S,8S,12R,14S,20S,23S,27S,30S,36S,38Z)-20-cyclopentyl-8-[2-[3,5-difluoro-4-(trifluoromethyl)phenyl]ethyl]-12-ethoxy-27-isobutyl-N,N,4,19,22,26,32,35-octamethyl-30-[(1S)-1-methylpropyl]-3,6,9,15,18,21,25,28,31,34,42-undecaoxo-2-[[4-(trifluoromethyl)phenyl]methyl]spiro[1,4,7,10,16,19,22,26,29,32,35-undecazatricyclo[34.5.1.0^10,14]dotetracont-38-ene-17,1′-cyclopentane]-23-carboxamide] | A (a compound having 10 or more and less than 20 is denoted as A) | A (a compound having 10 or more and less than 20 is denoted as A) | – | –
5 | CC[C@H](C)[C@@H]1NC(=O)[C@H](CC(C)C)N(C)C(=O)C[C@@H](C(=O)N2C[C@@H](C)O[C@@H](C)C2)N(C)C(=O)[C@H](C2CCCC2)N(C)C(=O)C2(CCCC2)NC(=O)[C@@H]2CCCN2C(=O)[C@H](CCc2ccc(C(F)(F)F)c(Cl)c2)NC(=O)CN(C)C(=O)[C@H](Cc2ccc(F)cc2)N2CCCCC[C@@H](C2=O)N(C)C(=O)CN(C)C1=O [PP1151] | B (a compound having 3 or more and less than 10 is denoted as B) | B (a compound having 3 or more and less than 10 is denoted as B) | – | –
6 | CCO[C@@H]1C[C@H]2C(=O)NC3(CCC3)C(=O)N(C)[C@@H](C3CCCC3)C(=O)N(C)[C@H](C(=O)N(CC)CC)CC(=O)N(C)[C@@H](CC(F)F)C(=O)N[C@@H]([C@@H](C)CC)C(=O)N(C)CC(=O)N(C)[C@H]3C/C=C\CCN(C3=O)[C@@H](Cc3ccc(C(F)(F)F)cc3)C(=O)N(C)CC(=O)N[C@@H](CCc3cc(F)c(C(F)(F)F)c(F)c3)C(=O)N2C1 [PP1309] | – | – | A (a compound having 10 or more and less than 20 is denoted as A) | A (a compound having 10 or more and less than 20 is denoted as A)
7 | CCO[C@@H]1C[C@H]2C(=O)NC3(CCC3)C(=O)N(C)[C@@H](C3CCCC3)C(=O)N(C)[C@H](C)CC(=O)N(C)[C@@H](CC3CC3)C(=O)N[C@@H]([C@@H](C)CC)C(=O)N(C)CC(=O)N(C)[C@H]3C/C=C\CCN(C3=O)[C@@H](Cc3ccc(F)cc3C)C(=O)N(C)CC(=O)N[C@@H](CCc3cc(F)c(C(F)(F)F)c(F)c3)C(=O)N2C1 [PP1489] | – | – | B (a compound having 3 or more and less than 10 is denoted as B) | B (a compound having 3 or more and less than 10 is denoted as B)
8 | CCO[C@@H]1C[C@H]2C(=O)NC3(CCC3)C(=O)N(C)[C@@H](C3CCCC3)C(=O)N(C)[C@H](C)CC(=O)N(C)[C@@H](CC3CCCC3)C(=O)N[C@@H]([C@@H](C)CC)C(=O)N(C)CC(=O)N(C)[C@H]3C/C=C\CCN(C3=O)[C@@H](Cc3ccc(F)cc3)C(=O)N(C)CC(=O)N[C@@H](CCc3cc(F)c(C(F)(F)F)c(F)c3)C(=O)N2C1 [PP1492] | – | – | B (a compound having 3 or more and less than 10 is denoted as B) | B (a compound having 3 or more and less than 10 is denoted as B)
9 | CCO[C@@H]1C[C@H]2C(=O)NC3(CCC3)C(=O)N(C)[C@@H](C3CCCC3)C(=O)N(C)[C@H](C)CC(=O)N(C)[C@@H](CC(C)C)C(=O)N[C@@H]([C@@H](C)CC)C(=O)N(C)CC(=O)N(C)[C@H]3C/C=C\CCN(C3=O)[C@@H](Cc3ccc(F)cc3C)C(=O)N(C)CC(=O)N[C@@H](CCc3cc(F)c(C(F)(F)F)c(F)c3)C(=O)N2C1 [PP1493] | – | – | B (a compound having 3 or more and less than 10 is denoted as B) | B (a compound having 3 or more and less than 10 is denoted as B)
10 | CCO[C@@H]1C[C@H]2C(=O)NC3(CCC3)C(=O)N(C)[C@@H](C3CCCC3)C(=O)N(C)[C@H](C)CC(=O)N(C)[C@@H](CC(C)C)C(=O)N[C@@H]([C@@H](C)CC)C(=O)N(C)CC(=O)N(C)[C@H]3C/C=C\CCN(C3=O)[C@@H](Cc3ccc(F)cc3)C(=O)N(C)CC(=O)N[C@@H](CCc3cc(F)c(C(F)(F)F)c(F)c3)C(=O)N2C1 [PP1494] | – | – | B (a compound having 3 or more and less than 10 is denoted as B) | B (a compound having 3 or more and less than 10 is denoted as B)
11 | CCO[C@@H]1C[C@H]2C(=O)NC3(CCC3)C(=O)N(C)[C@@H](C3CCCC3)C(=O)N(C)[C@H](C(=O)N3CCOCC3)CC(=O)N(C)[C@@H](CC3CC3)C(=O)N[C@@H]([C@@H](C)CC)C(=O)N(C)CC(=O)N(C)[C@H]3C/C=C\CCN(C3=O)[C@@H](Cc3ccc(F)cc3C)C(=O)N(C)CC(=O)N[C@@H](CCc3cc(F)c(C(F)(F)F)c(F)c3)C(=O)N2C1 [PP1495] | – | – | B (a compound having 3 or more and less than 10 is denoted as B) | A (a compound having 10 or more and less than 20 is denoted as A)
12 | CC[C@H](C)[C@@H]1NC(=O)[C@H](CC2CCCC2)N(C)C(=O)C[C@@H](C(=O)N(C)C)N(C)C(=O)[C@H](C2CCCC2)N(C)C(=O)C2(CCC2)NC(=O)[C@@H]2C[C@@H](C(F)(F)F)CN2C(=O)[C@H](CCc2cc(F)c(C(F)(F)F)c(F)c2)NC(=O)CN(C)C(=O)[C@H](Cc2ccc(F)cc2)N2CC/C=C\C[C@@H](C2=O)N(C)C(=O)CN(C)C1=O [PP1508] | – | – | A (a compound having 10 or more and less than 20 is denoted as A) | A (a compound having 10 or more and less than 20 is denoted as A)
13 | CC[C@H](C)[C@@H]1NC(=O)[C@H](CC2CC2)N(C)C(=O)C[C@@H](C(=O)N2CCCC2)N(C)C(=O)[C@H](C2CCCC2)N(C)C(=O)C2(CCCC2)NC(=O)[C@@H]2C[C@@H](C(F)(F)F)CN2C(=O)[C@H](CCc2cc(F)c(C(F)(F)F)c(F)c2)NC(=O)CN(C)C(=O)[C@H](Cc2ccc(F)cc2)N2CC/C=C\C[C@@H](C2=O)N(C)C(=O)CN(C)C1=O [PP1509] | – | – | A (a compound having 10 or more and less than 20 is denoted as A) | A (a compound having 10 or more and less than 20 is denoted as A)
14 | CCO[C@@H]1C[C@H]2C(=O)NC3(CCC3)C(=O)N(C)[C@@H](C(CC)CC)C(=O)N(C)[C@H](C(=O)N(C)C)CC(=O)N(C)[C@@H](CC3CC3)C(=O)N[C@@H]([C@@H](C)CC)C(=O)N(C)CC(=O)N(C)[C@H]3C/C=C\CCN(C3=O)[C@@H](Cc3ccc(F)cc3C)C(=O)N(C)CC(=O)N[C@@H](CCc3cc(F)c(C(F)(F)F)c(F)c3)C(=O)N2C1 [PP1514] | – | – | A (a compound having 10 or more and less than 20 is denoted as A) | A (a compound having 10 or more and less than 20 is denoted as A)
15 | CCO[C@@H]1C[C@H]2C(=O)NC3(CCC3)C(=O)N(C)[C@@H](C(CC)CC)C(=O)N(C)[C@H](C)CC(=O)N(C)[C@@H](CC3CC3)C(=O)N[C@@H]([C@@H](C)CC)C(=O)N(C)CC(=O)N(C)[C@H]3C/C=C\CCN(C3=O)[C@@H](Cc3ccc(F)cc3C)C(=O)N(C)CC(=O)N[C@@H](CCc3cc(F)c(C(F)(F)F)c(F)c3)C(=O)N2C1 [PP1520] | – | – | A (a compound having 10 or more and less than 20 is denoted as A) | A (a compound having 10 or more and less than 20 is denoted as A)
